Experiment [1] has as its system Proteasome. As to the kind of experiment: Inhibition of post glutamyl l-peptide (PGPH) proteolytic activity of purified human proteasome.
Experiment [2] deals with Proteasome. As to the kind of experiment: Inhibition of chymotrypsin-like proteolytic activity of purified human proteasome. The class given is subcellular.
The subject of experiment [3] is Proteasome. As to the kind of experiment: Inhibition of trypsin-like proteolytic activity of purified human proteasome. The class given is subcellular.
Experiment [4] concerns Proteasome. Kind of experiment: Inhibition of chymotrypsin-like proteolytic activity of purified human proteasome in cultured MDA-MB 435 Cells. The class given is subcellular.
Another experiment has as its system MDA-MB-435. As to the kind of experiment: Inhibition of MDA-MB 435 cell proliferation. The class given is functional, cell-based. To be noted: Homo sapiens.

Broadly, the IC50 is the midpoint of a concentration-inhibition curve. A high value points to weaker potency in that assay.

In the case of `COc1ccc(CNC(=O)[C@@H](NC(=O)[C@H](Cc2cc(OC)c(OC)c(OC)c2)NC(=O)Cc2cccc(Oc3ccccc3)c2)C(C)C)c(O)c1`, the concentration for half-maximal inhibition (IC50) in the experiment on Proteasome [1] is greater than 20 µM; in the experiment with Proteasome [2], 0.01 µM; with Proteasome [3], greater than 20 µM; in the experiment with Proteasome [4], 0.02 µM; in the experiment on MDA-MB-435 it was 0.06 µM.

For the compound `COc1ccc(CNC(=O)[C@@H](NC(=O)[C@H](Cc2ccc(OC)c(OC)c2)NC(=O)Cc2ccccc2)C(C)C)c(O)c1`, in the experiment on Proteasome [2], the IC50 came to 1 µM.

Regarding `COc1ccc(CNC(=O)[C@@H](NC(=O)[C@H](Cc2ccc(OC)c(OC)c2)NC(=O)Cc2cccc(Oc3ccccc3)c2)C(C)C)c(O)c1`, the IC50 in the experiment with Proteasome [1] was greater than 20 µM; in the experiment on Proteasome [2], 0.06 µM; in the experiment with Proteasome [3], greater than 20 µM; with MDA-MB-435 it was 0.9 µM.

Take `COc1ccc(CNC(=O)[C@@H](NC(=O)[C@H](NCc2cc(OC)c(OC)c(OC)c2)[C@H](O)[C@H](Cc2ccccc2)NC(=O)[C@@H](NC(=O)Cc2cccc3ccccc23)C(C)(C)C)C(C)C)c(O)c1`: the half-maximal inhibitory concentration (IC50) in the experiment on Proteasome [1] was greater than 20 µM; in the experiment with Proteasome [2], 0.007 µM; in the experiment with Proteasome [3] it was greater than 20 µM; in the experiment with MDA-MB-435 it was 1.5 µM.

In the case of `COc1ccc(CN[C@@H](C(=O)N[C@H](C(=O)NCc2ccc(OC)cc2O)C(C)C)[C@H](O)[C@H](Cc2ccccc2)NC(=O)[C@@H](NC(=O)OCc2ccccc2)C(C)(C)C)cc1`, the IC50 in the experiment on Proteasome [1] was greater than 20 µM; in the experiment on Proteasome [2], 0.9 µM; with Proteasome [3] it was greater than 20 µM.
